This note sets out measurements from ChEMBL document CHEMBL2380196, “New anticancer active and selective phenylene-bisbenzothiazoles: synthesis, antiproliferative evaluation and DNA binding” (Eur J Med Chem, 2013).

Series [1] addresses T1, DNA topoisomerase 1 (Homo sapiens) (UniProt P11387).
T1 sequence (whole entry): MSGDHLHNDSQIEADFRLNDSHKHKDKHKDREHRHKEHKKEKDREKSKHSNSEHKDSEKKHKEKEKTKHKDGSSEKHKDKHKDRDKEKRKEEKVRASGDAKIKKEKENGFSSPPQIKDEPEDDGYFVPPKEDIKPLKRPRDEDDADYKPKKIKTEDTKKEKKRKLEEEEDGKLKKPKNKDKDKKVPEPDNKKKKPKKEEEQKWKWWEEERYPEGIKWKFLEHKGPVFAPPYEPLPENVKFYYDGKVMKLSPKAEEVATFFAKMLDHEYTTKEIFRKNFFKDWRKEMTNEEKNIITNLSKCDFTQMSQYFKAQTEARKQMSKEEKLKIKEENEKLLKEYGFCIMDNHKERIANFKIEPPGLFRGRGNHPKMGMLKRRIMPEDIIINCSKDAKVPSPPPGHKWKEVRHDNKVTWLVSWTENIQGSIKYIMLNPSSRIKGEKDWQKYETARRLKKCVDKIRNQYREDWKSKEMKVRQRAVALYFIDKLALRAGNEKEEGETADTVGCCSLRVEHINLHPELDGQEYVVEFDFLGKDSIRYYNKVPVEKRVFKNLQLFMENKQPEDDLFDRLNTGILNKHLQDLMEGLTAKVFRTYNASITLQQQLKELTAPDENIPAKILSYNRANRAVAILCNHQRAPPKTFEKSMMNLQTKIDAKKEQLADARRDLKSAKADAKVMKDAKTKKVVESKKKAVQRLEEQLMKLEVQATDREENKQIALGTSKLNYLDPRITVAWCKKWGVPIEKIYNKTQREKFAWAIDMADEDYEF
The experiment in a line: Inhibition of human topoisomerase 1-mediated supercoiled pUC19 DNA relaxation at 1 to 50 uM after 45 mins by agarose gel electrophoresis.

Series [2] deals with DNA. The series can be described thus: Binding affinity to calf thymus DNA at 50 uM by Circular dichroism spectra analysis. Conditions: Bos taurus. The format is nucleic-acid assay. (Circular dichroism is widely used to follow secondary structure.)
In series [3] the test system is DNA. The series can be described thus: Binding affinity to calf thymus DNA assessed as change in melting temperature at 0.5 drug/DNA ratio by spectrophotometer analysis. The conditions noted are these: Bos taurus. The format is nucleic-acid assay.
In series [4] the test system is DNA. The series can be described thus: Binding affinity to calf thymus DNA assessed as hypochromic effect at 20 uM by UV/Vis spectra analysis. The format is nucleic-acid assay. The conditions noted are these: Bos taurus.
In the next series the test system is HeLa. The experiment in a line: Antiproliferative activity against human HeLa cells after 72 hrs by MTT assay. The format is functional, cell-based. Conditions: for CC50: read-out: LC50 (the source's name). On the technique in general: Tetrazolium dyes change colour on reduction, which living cells bring about.
The nature of series [5]: (§1) Antiproliferative activity against human WI38 cells after 72 hrs by MTT assay. The format is cell-based, WI-38. The conditions noted are these: human, WI-38 cells; read-out: LC50.
The subject of another series is WI-38. The series is described as §1. Conditions: Homo sapiens, WI-38, 72 h. The format is cell-based.
The next series deals with SW-620. The experiment in a line: Antiproliferative activity against human SW620 cells after 72 hrs by MTT assay. It counts as functional, cell-based. Conditions: SW-620, 72 h; for CC50: read-out: LC50 (the source's name).
In the next series the test system is MIA PaCa-2. The experiment in a line: Antiproliferative activity against human MIAPaCa2 cells after 72 hrs by MTT assay. The format is functional, cell-based. Conditions: MIA PaCa-2, 72 h; for CC50: read-out: LC50 (the source's name).
The subject of another series is SK-BR-3. The series can be described thus: Antiproliferative activity against human SKBR3 cells after 72 hrs by MTT assay. It counts as functional, cell-based. The conditions noted are these: SK-BR-3, 72 h; for CC50: read-out: LC50 (the source's name).
The test system of another series is MCF7. The experiment in a line: Antiproliferative activity against human MCF7 cells after 72 hrs by MTT assay. Conditions: MCF7, 72 h; for CC50: read-out: LC50 (the source's name). It counts as functional, cell-based.
The target in series [6] is DNA topoisomerase 2-alpha (Homo sapiens) (UniProt P11388). The series can be described thus: Inhibition of human topoisomerase 2-mediated supercoiled pUC19 DNA relaxation assessed as formation of open circle form after 45 mins using ethidium bromide staining by agarose gel electrophoresis.
Series [7] concerns the target T1, DNA topoisomerase 1 (Homo sapiens). The series can be described thus: Inhibition of human topoisomerase 1-mediated supercoiled pUC19 DNA relaxation assessed as formation of open circle form after 45 mins using ethidium bromide staining by agarose gel electrophoresis.
Series [8] relates to DNA. The series can be described thus: Binding affinity to calf thymus DNA assessed as change in melting temperature at 0.25 drug/DNA ratio by spectrophotometer analysis. The format is nucleic-acid assay. The conditions noted are these: Bos taurus.

Molecules are shown by their SMILES. The source made the active and inactive calls. The rule behind the calls is not given here.

Sequence of DNA topoisomerase 2-alpha (Homo sapiens) (P11388 whole entry): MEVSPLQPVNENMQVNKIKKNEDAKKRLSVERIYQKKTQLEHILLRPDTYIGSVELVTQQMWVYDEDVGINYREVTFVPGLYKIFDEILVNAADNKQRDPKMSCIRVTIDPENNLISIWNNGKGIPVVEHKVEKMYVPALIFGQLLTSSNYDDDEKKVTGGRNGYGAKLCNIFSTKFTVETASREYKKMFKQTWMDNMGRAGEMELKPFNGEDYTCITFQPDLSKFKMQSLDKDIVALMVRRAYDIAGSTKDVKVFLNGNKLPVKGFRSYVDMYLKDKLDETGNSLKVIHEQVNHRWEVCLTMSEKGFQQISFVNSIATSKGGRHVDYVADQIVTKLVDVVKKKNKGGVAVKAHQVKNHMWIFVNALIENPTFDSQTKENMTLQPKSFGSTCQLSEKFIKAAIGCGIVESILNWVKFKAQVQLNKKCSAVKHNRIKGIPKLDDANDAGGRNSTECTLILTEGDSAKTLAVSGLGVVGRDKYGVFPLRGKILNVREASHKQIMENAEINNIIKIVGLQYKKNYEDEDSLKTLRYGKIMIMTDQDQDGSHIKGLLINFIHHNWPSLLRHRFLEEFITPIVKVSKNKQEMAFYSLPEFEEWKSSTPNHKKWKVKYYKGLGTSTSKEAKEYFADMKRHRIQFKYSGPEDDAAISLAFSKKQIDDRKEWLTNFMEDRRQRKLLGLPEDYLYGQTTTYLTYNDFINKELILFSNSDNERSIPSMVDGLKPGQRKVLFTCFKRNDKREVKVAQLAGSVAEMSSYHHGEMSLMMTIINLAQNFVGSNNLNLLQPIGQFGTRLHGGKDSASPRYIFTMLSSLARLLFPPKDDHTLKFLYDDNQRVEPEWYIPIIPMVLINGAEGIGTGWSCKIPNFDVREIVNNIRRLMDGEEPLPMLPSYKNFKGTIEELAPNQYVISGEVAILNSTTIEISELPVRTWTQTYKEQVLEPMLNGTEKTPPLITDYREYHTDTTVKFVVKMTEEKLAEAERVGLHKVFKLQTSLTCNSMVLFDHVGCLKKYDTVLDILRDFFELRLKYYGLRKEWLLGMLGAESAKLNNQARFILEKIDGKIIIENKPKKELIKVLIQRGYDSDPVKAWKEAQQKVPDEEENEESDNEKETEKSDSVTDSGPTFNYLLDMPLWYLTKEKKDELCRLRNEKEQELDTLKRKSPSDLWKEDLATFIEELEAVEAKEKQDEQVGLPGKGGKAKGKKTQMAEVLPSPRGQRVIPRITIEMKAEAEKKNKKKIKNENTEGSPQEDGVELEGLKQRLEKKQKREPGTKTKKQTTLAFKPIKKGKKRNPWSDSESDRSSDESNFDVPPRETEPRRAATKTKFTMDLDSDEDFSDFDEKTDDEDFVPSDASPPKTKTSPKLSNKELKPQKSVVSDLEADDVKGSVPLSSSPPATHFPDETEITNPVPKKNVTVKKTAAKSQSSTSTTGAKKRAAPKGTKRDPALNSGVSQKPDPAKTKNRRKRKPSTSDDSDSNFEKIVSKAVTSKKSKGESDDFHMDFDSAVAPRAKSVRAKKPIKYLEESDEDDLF

As usually defined, the ΔTm is the change in melting temperature against a reference sample. A word on the IC50: it is the concentration that inhibits the measured activity by half. In the case of `c1ccc(-c2nc3ccc(C4=NCCN4)cc3s2)c(-c2nc3ccc(C4=NCCN4)cc3s2)c1`, in series [1], the inhibition entry was “Active”. Besides, the result with DNA [2] and with DNA [4] was Active. For the same molecule, the ΔTm in the series with DNA [3] stood at 16.8 °C. Besides, the IC50 with HeLa worked out at 26.8 µM; in the series on WI-38, 8.99 µM; with SW-620 it was 24.7 µM; in the series on MIA PaCa-2 it was 14.6 µM; in the series with SK-BR-3 it was 1.86 µM; with MCF7, 10.1 µM. In addition, the CC50 in the series with HeLa turned out to be 76.4 µM; in the series on SW-620, 81.3 µM; in the series with MIA PaCa-2, 72.9 µM; in the series with SK-BR-3, 67.9 µM; with MCF7 it was 71.4 µM. Besides, in series [5], the CC50 at 72 h turned out to be 74.3 µM.

On to `N=C(N)c1ccc2nc(-c3ccccc3-c3nc4ccc(C(=N)N)cc4s3)sc2c1`, for which the result in the series on DNA [2] and in the series with DNA [4] was Active. The ΔTm with DNA [3] came out at 9.8 °C. Further, the IC50 in the series on HeLa was 63.6 µM; in the series with WI-38, 86.4 µM; in the series with SW-620 it was above 100 µM; in the series with MIA PaCa-2, 44.8 µM; in the series on SK-BR-3 it was 86.6 µM; with MCF7, 30.9 µM. Also, the CC50 with HeLa, in the series on SW-620, in the series on MIA PaCa-2, with SK-BR-3 and in the series with MCF7 was above 100 µM each time. Also, the CC50 at 72 h in [5] was above 100 µM.

For the molecule `N=C(N)c1ccc2nc(-c3ccc(-c4nc5ccc(C(=N)N)cc5s4)cc3)sc2c1`, the inhibition result in series [6] and in [7] was “Active” in each case. Besides, the result in the series on DNA [2] was inactive. Also, in the series on DNA [3], the ΔTm worked out at 3 °C. In addition, in the series with DNA [4], the result was Active. Besides, the IC50 in the series on HeLa is 9.6 µM; in the series on WI-38 it was 41.9 µM; in the series with SW-620, above 100 µM; in the series with MIA PaCa-2, 20.4 µM; in the series with SK-BR-3 it was 8.55 µM; with MCF7, 9.01 µM. In addition, the CC50 in the series on HeLa, with SW-620, in the series with MIA PaCa-2, in the series on SK-BR-3 and in the series on MCF7 was above 100 µM each time. The CC50 at 72 h in series [5] was above 100 µM.

For `N=C(N)c1ccc2nc(-c3cccc(-c4nc5ccc(C(=N)N)cc5s4)c3)sc2c1`, the inhibition entry in series [6] and in series [7] was “Active” throughout. For the same molecule, the result with DNA [2] and in the series on DNA [4] was Active. Also, the ΔTm with DNA [8] was found to be 13.7 °C. In addition, the IC50 is above 100 µM in the series on HeLa; 0.99 µM with WI-38; 6.01 µM in the series with SW-620; above 100 µM with MIA PaCa-2; 83.2 µM in the series with SK-BR-3; 5.34 µM with MCF7. The CC50 in the series on HeLa, in the series with SW-620, in the series on MIA PaCa-2, in the series on SK-BR-3 and in the series on MCF7 was above 100 µM each time. For the same molecule, in [5], the CC50 at 72 h was 65.4 µM.
